Experiments:
[1] = system: ENR+CD organoids (ISC to Paneth cell differentiation); assay: Primary screen: basal (non-stimulated) lysozyme secretion LYZ.NS, 2.5-D 384-well ENR+CD organoid differentiation; type: cell-based, mouse
Source text: (§1) High-throughput screening.

ENR+CD organoids = assay: Primary screen: ATP (CellTiter-Glo 3D, CTG) cell number/viability, 2.5-D 384-well ENR+CD organoids;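 also: compounds given at plating and again on day 3 over a 6-day differentiation from ENR+CV stem-cell-enriched precursors, ATP measured on day 6, plate median as control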
[2] = system: ENR+CD organoids (ISC to Paneth cell differentiation); assay: Primary screen: CCh-stimulated lysozyme secretion LYZ.S, 2.5-D 384-well ENR+CD organoid differentiation; type: cell-based, mouse; conditions: primary screen
Source text: as §1

[3] = primary screen, standard z score, dose 0.08 uM
[4] = primary screen, standard z score, dose 0.40 uM
[5] = primary screen, standard z score, dose 2.00 uM
[6] = primary screen, standard z score, dose 10.00 uM
[7] = primary screen, dose 0.08 uM, FC relative to plate median
[8] = primary screen, dose 0.08 uM, standard z score
[9] = primary screen, dose 0.40 uM, FC relative to plate median
[10] = primary screen, dose 0.40 uM, standard z score
[11] = primary screen, dose 2.00 uM, FC relative to plate median
[12] = primary screen, dose 2.00 uM, standard z score
[13] = primary screen, dose 10.00 uM, FC relative to plate median
[14] = primary screen, dose 10.00 uM, standard z score
[15] = dose 0.08 uM, FC relative to plate median
[16] = dose 0.40 uM, FC relative to plate median
[17] = dose 2.00 uM, FC relative to plate median
[18] = dose 10.00 uM, FC relative to plate median

| SMILES | Dose.FC.LYZ.NS ([1]; primary screen, dose 0.08 uM) [log2 fold change] | Dose.FC.LYZ.NS ([1]; primary screen, dose 0.40 uM) [log2 fold change] | Dose.FC.LYZ.NS ([1]; primary screen, dose 2.00 uM) [log2 fold change] | Z.LYZ.NS [1, 3] | Z.LYZ.NS [1, 4] | Z.LYZ.NS [1, 5] | Dose.FC.CTG (ENR+CD organoids; primary screen, dose 0.08 uM) [log2 fold change] | Dose.FC.CTG (ENR+CD organoids; primary screen, dose 0.40 uM) [log2 fold change] | Dose.FC.CTG (ENR+CD organoids; primary screen, dose 2.00 uM) [log2 fold change] | Dose.FC.LYZ.S ([2]; dose 0.08 uM) [log2 fold change] | Dose.FC.LYZ.S ([2]; dose 0.40 uM) [log2 fold change] | Dose.FC.LYZ.S ([2]; dose 2.00 uM) [log2 fold change] | Dose.FC.LYZ.NS ([1]; primary screen, dose 10.00 uM) [log2 fold change] | Z.LYZ.NS [1, 6] | Dose.FC.CTG (ENR+CD organoids; primary screen, dose 10.00 uM) [log2 fold change] | Z.CTG (ENR+CD organoids; [3]) | Z.CTG (ENR+CD organoids; [4]) | Z.CTG (ENR+CD organoids; [5]) | Z.CTG (ENR+CD organoids; [6]) | Dose.FC.LYZ.S ([2]; dose 10.00 uM) [log2 fold change] | other results |
| --- | --- | --- | --- | --- | --- | --- | --- | --- | --- | --- | --- | --- | --- | --- | --- | --- | --- | --- | --- | --- | --- |
| Cc1ccc(S(=O)(=O)NC(=O)NN2CC3CCCC3C2)cc1 (stereo not drawn) [Gliclazide] | 0.036 | 0.032 | 0.104 | 0.313 | 0.278 | 0.909 | 0.162 | 0.054 | 0.008 | 0.058 | 0.086 | −0.017 |  |  |  |  |  |  |  |  | Dose.FC.LYZ.NS (log2 fold change) ([1]; primary screen, dose 10.00 uM): −0.035; Z.LYZ.NS (standard z score) ([1]; primary screen, dose 10.00 uM): −0.303; Dose.FC.CTG (log2 fold change) (ENR+CD organoids; primary screen, dose 10.00 uM): −0.092; Dose.FC.LYZ.S (log2 fold change) ([2]; dose 10.00 uM): −0.060 |
| CCn1c2ccccc2c2cc(Nc3ccnc(NCCCN4CCOCC4)n3)ccc21 [EHop-016] | 0.177 | 0.035 | 0.029 | 1.537 | 0.302 | 0.252 | 0.081 | 0.062 | 0.088 | 0.091 | 0.012 | −0.011 | −0.203 | −1.769 | −0.757 | 0.193 | 0.147 | 0.211 | −1.808 | −0.299 |  |
| COc1cc(Br)c(Nc2nc(-c3c(C)nc4ncccn34)cs2)c(Br)c1 [PTC-209] |  |  |  |  |  |  |  |  |  |  |  |  |  |  |  |  |  |  |  |  | Dose.FC.LYZ.NS [1, 7]: 0.034 log2 fold change; Z.LYZ.NS [1, 8]: 0.294; Dose.FC.LYZ.NS [1, 9]: −0.058 log2 fold change; Z.LYZ.NS [1, 10]: −0.509; Dose.FC.LYZ.NS [1, 11]: −0.201 log2 fold change; Z.LYZ.NS [1, 12]: −1.753; Dose.FC.LYZ.NS [1, 13]: −0.227 log2 fold change; Z.LYZ.NS [1, 14]: −1.975; Dose.FC.CTG (ENR+CD organoids; [7]): −0.108 log2 fold change; Z.CTG (ENR+CD organoids; [8]): −0.259; Dose.FC.CTG (ENR+CD organoids; [9]): −0.207 log2 fold change; Z.CTG (ENR+CD organoids; [10]): −0.495; Dose.FC.CTG (ENR+CD organoids; [11]): −1.422 log2 fold change; Z.CTG (ENR+CD organoids; [12]): −3.397; Dose.FC.CTG (ENR+CD organoids; [13]): −1.553 log2 fold change; Z.CTG (ENR+CD organoids; [14]): −3.708; Dose.FC.LYZ.S [2, 15]: 0.007 log2 fold change; Dose.FC.LYZ.S [2, 16]: 0.045 log2 fold change; Dose.FC.LYZ.S [2, 17]: −0.289 log2 fold change; Dose.FC.LYZ.S [2, 18]: −0.300 log2 fold change |
| Cc1cn([C@H]2C=C[C@@H](CO)O2)c(=O)[nH]c1=O [Stavudine (d4T)] |  |  |  |  |  |  |  |  |  |  |  |  |  |  |  |  |  |  |  |  | Dose.FC.LYZ.NS [1, 7]: 0.071 log2 fold change; Z.LYZ.NS [1, 8]: 0.620; Dose.FC.LYZ.NS [1, 9]: 0.003 log2 fold change; Z.LYZ.NS [1, 10]: 0.027; Dose.FC.LYZ.NS [1, 11]: 0.009 log2 fold change; Z.LYZ.NS [1, 12]: 0.074; Dose.FC.LYZ.NS [1, 13]: −0.095 log2 fold change; Z.LYZ.NS [1, 14]: −0.828; Dose.FC.CTG (ENR+CD organoids; [7]): 0.095 log2 fold change; Z.CTG (ENR+CD organoids; [8]): 0.226; Dose.FC.CTG (ENR+CD organoids; [9]): 0.147 log2 fold change; Z.CTG (ENR+CD organoids; [10]): 0.351; Dose.FC.CTG (ENR+CD organoids; [11]): 0.075 log2 fold change; Z.CTG (ENR+CD organoids; [12]): 0.179; Dose.FC.CTG (ENR+CD organoids; [13]): −0.075 log2 fold change; Z.CTG (ENR+CD organoids; [14]): −0.179; Dose.FC.LYZ.S [2, 15]: 0.134 log2 fold change; Dose.FC.LYZ.S [2, 16]: 0.001 log2 fold change; Dose.FC.LYZ.S [2, 17]: −0.003 log2 fold change; Dose.FC.LYZ.S [2, 18]: −0.120 log2 fold change |
| Nc1ncnc2n[nH]c(Nc3ccc(F)cc3)c12 [CGP57380] | 0.218 | −0.041 | −0.055 | 1.900 | −0.354 | −0.477 | 0.108 | −0.293 | −0.460 | 0.096 | 0.054 | −0.095 | −0.037 | −0.321 | 0.055 | 0.258 | −0.700 | −1.098 | 0.132 | −0.088 |  |
